Assay [1] concerns the target T1, B1R receptor of the rat (bradykinin 1 receptor) (Rattus norvegicus, UniProt P97583).
T1 construct: host or cells: CHO K1 cells (rB1R cells)
T1 sequence (P97583 1-337): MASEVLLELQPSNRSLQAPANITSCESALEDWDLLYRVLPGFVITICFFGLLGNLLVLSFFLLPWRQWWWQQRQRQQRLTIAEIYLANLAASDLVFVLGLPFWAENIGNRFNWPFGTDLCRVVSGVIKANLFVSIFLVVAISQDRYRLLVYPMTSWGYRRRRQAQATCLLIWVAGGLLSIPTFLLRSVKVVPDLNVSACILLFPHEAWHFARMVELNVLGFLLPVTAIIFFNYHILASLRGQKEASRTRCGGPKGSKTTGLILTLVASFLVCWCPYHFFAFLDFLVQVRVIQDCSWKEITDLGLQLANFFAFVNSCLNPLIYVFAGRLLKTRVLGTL
The assay can be described thus: FLIPR Ca2+ assay (Fluo-4) on CHO K1 cells stably transfected with the B1R gene of the rat; % activation and % inhibition at 10 μM. The assay is classed as cell-based. The following applies: CHO K1 rB1R cells, Ca2+ inflow after 100 nM Des-Arg9-bradykinin; for inhibition at 10 µM: CHO-K1, test substance 10 μM, read-out: B1R antagonism, rat [10 μM] % inhibition. An outline of the steps:
(§1)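 Fluo-4 Ca2+ flux on FLIPR in stable hB1R or rB1R CHO K1 lines, two additions. Agonism: 10 µM compound versus 0.5 nM Lys-Des-Arg9-BK (human) or 100 nM Des-Arg9-BK (rat); antagonism: same agonists applied 10 min later, suppression expressed against maximum achievable inhibition.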

Assay [2] has as its target T2, human B1R receptor (bradykinin 1 receptor) (Homo sapiens, UniProt P46663).
T2 construct: host or cells: CHO K1 cells (hB1R cells)
T2 sequence (P46663 1-353): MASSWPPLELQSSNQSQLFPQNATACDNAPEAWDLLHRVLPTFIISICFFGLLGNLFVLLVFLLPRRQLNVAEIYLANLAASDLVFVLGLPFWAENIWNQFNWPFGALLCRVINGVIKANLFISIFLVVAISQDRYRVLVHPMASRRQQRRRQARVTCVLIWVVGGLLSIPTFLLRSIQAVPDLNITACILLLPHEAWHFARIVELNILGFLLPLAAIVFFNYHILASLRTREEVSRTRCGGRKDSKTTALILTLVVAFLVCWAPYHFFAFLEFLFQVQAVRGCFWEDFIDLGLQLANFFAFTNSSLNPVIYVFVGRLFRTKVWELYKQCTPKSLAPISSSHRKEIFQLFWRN
Briefly: FLIPR Ca2+ assay (Fluo-4) on CHO K1 cells stably transfected with the human B1R gene; % activation and % inhibition at 10 μM. The assay is classed as cell-based. The following applies: CHO K1 hB1R cells, Ca2+ inflow after 0.5 nM Lys-Des-Arg9-bradykinin; for inhibition at 10 µM: CHO-K1, test substance 10 μM, read-out: B1R antagonism, human [10 μM] % inhibition. In short, it runs like this: as §1

[3] abbreviates: test substance 10 μM, hydrochloride.

A word on the inhibition: it is the drop in the measured response relative to a control, in per cent.

Where a name gives a salt, the structure may show the parent alone.

For `COc1cc(C)c(S(=O)(=O)N2CCCC2COCC(=O)N2CCC(O)(c3cccs3)CC2)c(C)c1` (stereo not drawn) [Example 239, 1-(4-hydroxy-4-(thiophen-2-yl)piperidin-1-yl)-2-((1-(4-methoxy-2,6-dimethylphenylsulfonyl)pyrrolidin-2-yl)methoxy)ethanone], the results for the inhibition at 10 µM in assay [1] and in assay [2] were 98.9% and 105%, respectively.

As to `COc1cc(C)c(S(=O)(=O)N2CCC(OCC(=O)N3CCC(O)(Cc4ccccc4)CC3)CC2)c(C)c1C` [Example 8, 1-(4-benzyl-4-hydroxy-piperidin-1-yl)-2-[1-(4-methoxy-2,3,6-trimethyl-phenylsulfonyl)-piperidin-4-yloxy]-ethanone], the figures for the inhibition at 10 µM in assay [1] and in assay [2] were 33.3% and 97.4%, respectively.

`CN(c1ccccc1CCC(=O)N1CCC(O)(c2ccc(Cl)c(C(F)(F)F)c2)CC1)S(=O)(=O)c1ccc(Cl)c(Cl)c1` [Example 124, 3,4-dichloro-N-(2-(3-(4-(4-chloro-3-(trifluoromethyl)phenyl)-4-hydroxypiperidin-1-yl)-3-oxopropyl)phenyl)-N-methylphenylsulfonamide]: the inhibition at 10 µM is 61.6% in assay [1] and 41% in assay [2].

For `O=C(COCCN1CCN(S(=O)(=O)c2ccccc2)CC1)N1CCC(O)(c2ccncc2)CC1` [Example 49, 2-[2-(4-phenylsulfonyl-piperazin-1-yl)-ethoxy]-1-(4-hydroxy-3,4,5,6-tetrahydro-2H-[4,4′]bipyridinyl-1-yl)-ethanone], the values for the inhibition at 10 µM in assay [1] and in assay [2] were 7.14% and -5.73%, respectively.

With `Cc1cc(S(=O)(=O)N(C)CCOCC(=O)N2CCC(O)(c3ccc(Cl)cc3)CC2)c(C)cc1Cl` [Example 150, 4-chloro-N-(2-(2-(4-(4-chlorophenyl)-4-hydroxypiperidin-1-yl)-2-oxoethoxy)ethyl)-N,2,5-trimethylphenylsulfonamide], the values for the inhibition at 10 µM in assay [1] and in assay [2] were 93.7% and 95.3%, respectively.

For the compound `COc1cc(C)c(S(=O)(=O)N(C)CCOCC(=O)N2CCC(O)(c3ccncc3)CC2)c(C)c1` [Example 88, N-{2-[2-(4-hydroxy-3,4,5,6-tetrahydro-2H-[4,4′]bipyridinyl-1-yl)-2-oxo-ethoxy]-ethyl}-4-methoxy-2,6,N-trimethyl-phenylsulfonamide], the inhibition at 10 µM in assay [1] was 103%; in assay [2] it was 102%.

In the case of `COc1ccc(S(=O)(=O)N2CCCC2COCC(=O)N2CCC(O)(c3ccncc3)CC2)cc1` (stereo not drawn) [Example 26, 1-(4-hydroxy-3,4,5,6-tetrahydro-2H-[4,4′]bipyridinyl-1-yl)-2-[1-(4-methoxy-phenylsulfonyl)-pyrrolidin-2-ylmethoxy]-ethanone], the figures for the inhibition at 10 µM in assay [1] and in assay [2] were 5.09% and 9.64%, respectively.

For the compound `CN(CCOCC(=O)N1CCC(O)(c2ccccn2)CC1)S(=O)(=O)c1ccc(Cl)s1` [Example 103, 5-chloro-thiophene-2-sulfonic acid {2-[2-(4′-hydroxy-3′,4′,5′,6′-tetrahydro-2′H-[2,4′]bipyridinyl-1′-yl)-2-oxo-ethoxy]-ethyl}-methyl-amide], the figures for the inhibition at 10 µM in assay [1] and in assay [2] were 19.3% and -9.25%, respectively.

`Cc1cc(C)c(S(=O)(=O)N2CCCCC2COCC(=O)N2CCC(O)(c3ccc(Cl)cc3)CC2)c(C)c1` (stereo not drawn) [Example 66, 1-(4-(4-chlorophenyl)-4-hydroxypiperidin-1-yl)-2-((1-(mesitylsulfonyl)piperidin-2-yl)methoxy)ethanone]: the results for the inhibition at 10 µM in assay [1] and in assay [2] were 99.2% and 84.5%, respectively.

As to `Cc1cc(Cl)cc(Cl)c1S(=O)(=O)N(C)CCOCC(=O)N1CCC(O)(c2ccccn2)CC1` [Example 198, 2,4-dichloro-N-(2-(2-(4-hydroxy-4-(pyridin-2-yl)piperidin-1-yl)-2-oxoethoxy)ethyl)-N,6-dimethylphenylsulfonamide], the inhibition at 10 µM was found to be 99.2% in assay [1] and 106% in assay [2].

In the case of `COc1ccc(S(=O)(=O)N2Cc3ccccc3C[C@H]2COCC(=O)N2CCC(O)(c3cccnc3)CC2)cc1` [Example 134, (S)-1-(4-hydroxy-4-(pyridin-3-yl)piperidin-1-yl)-2-((2-(4-methoxyphenylsulfonyl)-1,2,3,4-tetrahydroisoquinolin-3-yl)methoxy)ethanone], the inhibition at 10 µM in assay [1] came to 29.1%; in assay [2], 66%.

With `COc1cc(C)cc(C)c1S(=O)(=O)N1CCC(OCC(=O)N2CCC(O)(Cc3ccccc3)CC2)C1` (stereo not drawn) [Example 265, 1-(4-benzyl-4-hydroxypiperidin-1-yl)-2-(1-(2-methoxy-4,6-dimethylphenylsulfonyl)pyrrolidin-3-yloxy)ethanone], the inhibition at 10 µM in assay [1] was 29.5%; in assay [2], 54.1%.

Regarding `COc1cc(C)c(S(=O)(=O)N2CCCCC2COCC(=O)N2CCC(O)(c3ccccn3)CC2)c(C)c1` (stereo not drawn) [Example 138, 1-(4-hydroxy-4-(pyridin-2-yl)piperidin-1-yl)-2-((1-(4-methoxy-2,6-dimethylphenylsulfonyl)piperidin-2-yl)methoxy)ethanone], the figures for the inhibition at 10 µM in assay [1] and in assay [2] were 99.6% and 102%, respectively.

As for `O=C(COCC1Cc2ccccc2N1S(=O)(=O)c1ccc(Cl)c(Cl)c1)N1CCC(O)(c2cccnc2)CC1` (stereo not drawn) [Example 100, 2-[1-(3,4-dichloro-phenylsulfonyl)-2,3-dihydro-1H-indol-2-ylmethoxy]-1-(4′-hydroxy-3′,4′,5′,6′-tetrahydro-2′H-[3,4′]bipyridinyl-1′-yl)-ethanone], the inhibition at 10 µM in assay [1] was -0.67%; in assay [2] it was -6.26%.

Take `O=C(COCC1CCCN1S(=O)(=O)c1c(Cl)cccc1Cl)N1CCC(O)(c2cccc(C(F)(F)F)c2)CC1` (stereo not drawn) [Example 222, 2-((1-(2,6-dichlorophenylsulfonyl)pyrrolidin-2-yl)methoxy)-1-(4-hydroxy-4-(3-(trifluoromethyl)phenyl)piperidin-1-yl)ethanone]: the values for the inhibition at 10 µM in assay [1] and in assay [2] were 103% and 102%, respectively.

On to `Cc1cc(Cl)cc(Cl)c1S(=O)(=O)N(C)CCOCC(=O)N1CCC(O)(c2ccc(Cl)cc2)CC1` [Example 104, 2,4-dichloro-N-(2-(2-(4-(4-chlorophenyl)-4-hydroxypiperidin-1-yl)-2-oxoethoxy)ethyl)-N,6-dimethylphenylsulfonamide], for which the inhibition at 10 µM in assay [1] is 95.8%; in assay [2] it was 99.7%.

Consider `O=C(COCC1CCCN1S(=O)(=O)c1cc(Cl)sc1Cl)N1CCC(O)(c2ccccc2)CC1` (stereo not drawn) [Example 225, 2-((1-(2,5-dichlorothiophen-3-ylsulfonyl)pyrrolidin-2-yl)methoxy)-1-(4-hydroxy-4-phenylpiperidin-1-yl)ethanone], for which the inhibition at 10 µM turned out to be 88.5% in assay [1] and 43.1% in assay [2].

On to `Cc1cc(C)c(S(=O)(=O)N2CCCCC2COCC(=O)N2CCC(O)(c3cccnc3)CC2)c(C)c1` (stereo not drawn) [Example 68, 1-(4′-hydroxy-3′,4′,5′,6′-tetrahydro-2′H-[3,4′]bipyridinyl-1′-yl)-2-[1-(2,4,6-trimethyl-phenylsulfonyl)-piperidin-2-ylmethoxy]-ethanone], for which the inhibition at 10 µM in assay [1] was found to be 79%; in assay [2] it was 74.9%.

With `COc1cc(C)c(S(=O)(=O)N2CCCCC2COCC(=O)N2CCC(O)(c3cccs3)CC2)c(C)c1` (stereo not drawn) [Example 85, 1-(4-hydroxy-4-thiophen-2-yl-piperidin-1-yl)-2-[1-(4-methoxy-2,6-dimethyl-phenylsulfonyl)-piperidin-2-ylmethoxy]-ethanone], the inhibition at 10 µM in assay [1] was found to be 101%; in assay [2], 106%.

`CN(CCOCC(=O)N1CCC(O)(c2cccnc2)CC1)S(=O)(=O)c1c(Cl)cc(Cl)cc1Cl` [Example 5, 2,4,6-trichloro-N-(2-(2-(4-hydroxy-4-(pyridin-3-yl)piperidin-1-yl)-2-oxoethoxy)ethyl)-N-methylphenylsulfonamide hydrochloride]: in assay [1] (setting [3]), the “B1R antagonism, rat [10 μM] % inhibition” value was 95.11%. Moreover, the “B1R antagonism, human [10 μM] % inhibition” value in assay [2] (setting [3]) amounted to 101.04%.

Take `COc1cc(C)c(S(=O)(=O)N2CCCC2COCC(=O)N2CCC(O)(Cc3ccccc3)CC2)c(C)c1` (stereo not drawn) [Example 216, 1-(4-benzyl-4-hydroxypiperidin-1-yl)-2-((1-(4-methoxy-2,6-dimethylphenylsulfonyl)pyrrolidin-2-yl)methoxy)ethanone]: the inhibition at 10 µM came to 100% in assay [1] and 102% in assay [2].

These data come from patent US8580965B2, “Substituted sulfonamide compounds” (Gruenenthal GmbH, priority 2006, dated 2013).
